In patent US9320760B2, “Compositions and methods of use of compounds to increase cancer patient survival time” (BioNumerik Pharmaceuticals, Inc., priority 2008, dated 2016):
Several values for one entry are separate records, joined by “and”; a condition that tells them apart may be missing. Equal entries are not always repeated.

Key:
[1] = tested on: patients with advanced stage (IIIB/IV) non-small cell lung carcinoma (NSCLC), including the adenocarcinoma sub-type; test: U.S. Phase II NSCLC Clinical Trial (dose-dense docetaxel + cisplatin with or without Tavocept); type: in vivo, human
Description: Darbepoetin alfa (200 μg; subcutaneous administration) was administered on day one of the chemotherapy cycle and pegfilgrastim (6 mg subcutaneous administration) was administered on day two of the chemotherapy cycle if the patient's hemoglobin levels were ≦11 g/dL. The aforementioned chemotherapy cycle was repeated every two weeks, for up to a total of six cycles.

[2] = target: T1, GST (m1-1 isotype of GST) (Homo sapiens, UniProt P09488); test: GST assay: conjugation of reduced glutathione to 1-chloro-2,4-dinitrobenzene (CDNB), 340 nm; type: biochemical; details: for Slope Abs/min: individual assay run, 1 mM GSH, slope 8.9 to 13.1 min, 20° C.; for Slope Mean: mean of three runs (0 mM control 0.0449); for Relative Activity: normalized to reactions with no Tavocept
T1 construct: purchased
T1 sequence (P09488 1-218): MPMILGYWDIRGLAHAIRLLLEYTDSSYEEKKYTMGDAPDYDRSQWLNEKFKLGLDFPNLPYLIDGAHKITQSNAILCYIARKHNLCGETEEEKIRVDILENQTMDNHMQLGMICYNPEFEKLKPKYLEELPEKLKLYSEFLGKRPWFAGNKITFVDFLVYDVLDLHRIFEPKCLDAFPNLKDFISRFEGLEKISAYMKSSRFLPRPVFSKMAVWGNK
Description: An in vitro assay for GST has been developed and reported. See, Meyer, D. J. and Ketterer, B., Purification of soluble human glutathione S-transferases. Methods Enzymol. 252:53-65 (1995). This assay monitors the conjugation of reduced glutathione to 1-chloro-2,4-dinitrobenzene (CDNB), as illustrated in Reaction Scheme II, below.
Reduced thiol forms a conjugate with CDNB (extinction coefficient=9600 M^−1 cm^−1), which is detected at 340 nm. […] A typical 1 mL assay was set up by mixing 500 μL NaHPO4 buffer (200 mM, pH 6.5), 20 μL GSH (50 mM), 20 μL CDNB (50 mM), and 458 μL sterile water. Reactions were incubated at 20° C. in the cuvette holder of the spectrophotometer for approximately 5 min. prior to initiating the assay with the addition of enzyme (m1-1 isotype of GST; activity >100 U/mg). The enzyme stock purchased from the vendor was diluted 1:100 in 200 mM NaHPO4 buffer (pH 6.5), and 2 μL of the diluted enzyme was added to initiate the reaction. The final amount of enzyme added to the assay was typically 0.002 U. Assays were run at 20° C. in 1 mL quartz cuvettes (Hellma Scientific). Slopes were measured in the linear range of the assay (i.e., typically between 5 to 10 min.). […] Final reaction volumes were fixed at 1 mL by adjusting the amount of water added.
All UV-visible assays were performed using a Varian Cary 100 spectrophotometer equipped with a thermostatic jacketed multi-cell holder. The default parameters of the Cary Win UV Enzyme Kinetics application (version 2.00) were used; with the exceptions of using both the visible and deuterium lamps, and setting the wavelength to 340 nm, the temperature to 20° C., and the maximal duration of the assay at 30 minutes.
Raw data was obtained on a Cary 100 spectrophotometer. […] The first phase was a baseline corresponding to the time prior to addition of enzyme (typically 2-5 min. in duration). Assays in the first phase of the reaction contained only substrate, buffer and (in some assays) Tavocept™. The spectrophotometer was put in pause mode while enzyme (GST) was added and mixed into the assay reactions. No absorbance values were collected during the process of enzyme addition. The region of experimental interest was during the linear phase of the enzyme reaction, which immediately followed the addition of enzyme. The linear phase is of experimental interest because it is when the classical model of Michaelis-Menton kinetics holds true. During this phase the substrate concentration is high (>Km for enzyme) and, therefore, the rate of catalysis is independent of the substrate concentration. It was during this time that reaction rates (i.e., slopes of change in absorbance with time) were measured using the Cary 100 software. The duration of the linear phase was between 5-10 minutes, depending upon the specific reaction conditions. Reactions were considered complete when substrate concentration was no longer saturating and became a rate limiting factor of the assay. When the substrate was limiting, the reaction rate deviated from linearity. This end phase of the reaction was typically observed after 10 to 15 minutes. Absorbance and time values during the end phase of the reaction were not used in slope calculations because the reaction was effectively over at this point as the reaction no longer followed the classical Michaelis-Menton model for enzyme kinetics. Completion of the reaction on the Cary software could be detected visually by overlaying a straight line beginning at the addition of enzyme and extending past the end phase of the assay curve. Upon completion of a set of reactions data was stored as an electronic “batch” file. Sigma Plot was used specifically to show the mean of assays run in triplicate with linear regression lines and error bars illustrating standard deviation. Descriptive statistics (mean and standard deviation) were used to describe and summarize the results of the experiments. The results of these experiments are illustrated in FIG. 16. […]

[3] = target: T2, Thioredoxin Reductase + Thioredoxin (Bos taurus, UniProt O97680); test: NADPH oxidation at 340 nm, coupled thioredoxin (TX)/thioredoxin reductase (TXR)/NADPH system; type: biochemical, bovine
T2 sequence (O97680 1-105): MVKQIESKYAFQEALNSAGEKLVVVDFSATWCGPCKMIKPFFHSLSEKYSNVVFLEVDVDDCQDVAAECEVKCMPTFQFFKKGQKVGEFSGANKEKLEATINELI
Description: Biochemistry 21:6628-6633 (1982).
Data was then collected and plotted in Microsoft Excel. Error calculations, and graphical representations were performed in Microsoft Excel and Kaleidograph (ver. 3.5). Nonlinear data was graphically rendered using Kaleidograph. ANOVA and other statistical analyses were performed using SAS (ver. 8.2). Unless otherwise noted, significance level was set at 0.05, and error bars represent actual experimental standard deviation.
It should be noted that for the purposes of FIG. 17 only, thioredoxin is labeled TXR and thioredoxin reductase is labeled TRR.
Table 4, below, illustrates that various Formula (I) compounds (i.e., disulfide-containing compounds) of the present invention can serve as alternate substrate inhibitors for the coupled thioredoxin (TX)/thioredoxin reductase (TXR)/NADPH system as measured by the oxidation of NADPH. In Table 4, the Formula (I) compounds were utilized at a concentration of 0.5 mM.

[4] = FIG. 13, Tavocept arm versus non-Tavocept arm
[5] = FIG. 14, adenocarcinoma patients, Tavocept vs non-Tavocept arm
[6] = FIG. 15, Tavocept arm versus non-Tavocept arm

O=S(=O)([O-])CCSSCCS(=O)(=O)[O-].[Na+].[Na+] [Tavocept™, disodium 2,2′-dithio-bis-ethane sulfonate]
median patient survival (time to death) ([1]; FIG. 12, NSCLC incl. adenocarcinoma, Tavocept arm (10.74 months non-Tavocept arm), 95% confidence limit): 11.66 months | hazard ratio, survival ([1]; FIG. 12, NSCLC incl. adenocarcinoma, Tavocept vs non-Tavocept arm): 0.750 | increase in patient survival ([1]; FIG. 12, NSCLC, Tavocept arm versus non-Tavocept arm): 0.92 month | patient progression-free survival (PFS) ([1]; FIG. 13, Tavocept arm (9.25% non-Tavocept arm), 95% confidence interval): 18.7% | overall patient one-year survival (OS) rate ([1]; FIG. 13, Tavocept arm (39.5% non-Tavocept arm), 95% confidence interval): 50.7% | increase in overall patient one-year survival (OS) rates [1, 4]: 11.2% | increase in patient progression-free survival (PFS) [1, 4]: 9.5% | median patient survival (time to death), adenocarcinoma ([1]; FIG. 14, adenocarcinoma patients, Tavocept arm (9.10 months non-Tavocept arm), 95% confidence limit): 15.64 months | increase in patient survival, adenocarcinoma ([1]; FIG. 14, adenocarcinoma patients, Tavocept arm versus non-Tavocept arm): 6.54 months | increase in patient survival, adenocarcinoma ([1]; FIG. 14, adenocarcinoma patients, Tavocept arm versus non-Tavocept arm, listed as Tavocept): ~6.5 months | hazard ratio, survival, adenocarcinoma [1, 5]: 0.601 | reduction in the patient mortality rate, adenocarcinoma [1, 5]: 40% | reduction in dehydration (Grade 3 and Grade 4 treatment-related adverse events) [1, 6]: 50% | reduction in hypomagnesaemia (Grade 3 and Grade 4 treatment-related adverse events) [1, 6]: 100% | reduction in nausea (Grade 3 and Grade 4 treatment-related adverse events) [1, 6]: 38.5% | reduction in vomiting (Grade 3 and Grade 4 treatment-related adverse events) [1, 6]: 71.5% | increase in median survival time, adenocarcinoma patients ([1]; adenocarcinoma patients in the Tavocept arm): approximately 198 days | Slope Abs/min ([2]; Tavocept 1.1 mM): 0.0437 Abs/min and 0.0407 Abs/min and 0.0427 Abs/min | Slope Mean ([2]; Tavocept 1.1 mM): 0.0424 Abs/min | Relative Activity ([2]; Tavocept 1.1 mM): 94.4% | Slope Abs/min ([2]; Tavocept 3.3 mM): 0.0295 Abs/min and 0.0242 Abs/min and 0.0284 Abs/min | Slope Mean ([2]; Tavocept 3.3 mM): 0.0274 Abs/min | Relative Activity ([2]; Tavocept 3.3 mM): 61% | Slope Abs/min ([2]; Tavocept 10 mM): 0.0155 Abs/min and 0.0158 Abs/min and 0.0139 Abs/min | Slope Mean ([2]; Tavocept 10 mM): 0.0151 Abs/min | Relative Activity ([2]; Tavocept 10 mM): 33.6% | increase in GST inhibition ([2]; Tavocept raised from 1.1 mM to 3.3 mM): ~6 times | NADPH Oxidation, Thioredoxin Reductase + Thioredoxin ([3]; Disulfide 0.5 mM, minimum of triplicate assays): 13.1 ± 0.2 nmol/min/mL | NADPH oxidation by TXR in the presence of TX ([3]; FIG. 17, increasing Tavocept concentration): concentration-dependent increase | oxidation of reduced thioredoxin to oxidized thioredoxin ([3]; result in words): drives the oxidation
